Laboratory results as given in patent US20210308028A1, “Compositions and Methods for Maintaining and Protecting Tissue Integrity and Barrier Function” (Colgate-Palmolive Company, priority 2020, published 2021).

How the values were obtained:
[1] = tested on: B11 immortalized human gingival keratinocyte cell line; assay: Transepithelial electrical resistance (TER) of gingival keratinocyte barrier; assay type: cell-based; settings: no challenge; dilutions 1/500, 1/1000, 1/2000 or 0.025-0.2%; multiple time points; FIGS. 6, 9, 12
Procedure: Tight junction integrity was assessed by determining the trans-epithelial electrical resistance (TER). B11 gingival keratinocytes were seeded onto Costar™ Transwell™ clear polyester membrane inserts (6.5-mm diameter; 0.4-μm pore size; Corning Co., Cambridge, Mass., USA) at 3×10^5 cells per insert. The basolateral and apical compartments were filled with 0.6 mL and 0.1 mL of complete K-SFM, respectively. Following a 72-h incubation, the conditioned medium was replaced with antibiotic-free K-SFM, and the cells were incubated for a further 16 h. The TER values were measured using an Ohm/voltmeter (EVOM2; World Precision Instruments, Sarasota, Fla., USA) at 0, 4, 8, 24, 48, and 72 h. Resistance values were calculated in Ohms (Ω)/cm 2 by multiplying the resistance values by the filter surface area. Results were expressed as percentage of the basal control values measured at time 0 h (100% values) for each condition.

[2] = tested on: zonula occludens-1 and occludin in gingival keratinocytes challenged with P. gingivalis; assay: Immunofluorescence of tight junction proteins with P. gingivalis challenge; assay type: cell-based, human; settings: Example 4, FIGS. 17, 20, 23
Procedure: (§1) Gingival keratinocytes treated as described above for 12 h were immunostained for zonula occludens-1 and occludin, two tight junction proteins. Briefly, the cells were fixed in 50 mM phosphate-buffered saline (pH 7.2) (PBS) containing 4% paraformaldhehyde for 20 min, permeabilized with 0.1% Triton X-100 for 10 min, and blocked in 3% non-fat milk in 20 mM Tris-HCl (pH 8), 150 mM NaCl, and 0.5% Tween 20 for 40 min. The cells were incubated with 2.5 μg/mL of either occludin antibody-Alexa Fluor® 488 conjugate or ZO-1 antibody-Alexa Fluor® 594 conjugate in blocking buffer overnight at 4° C. After washing with PBS, the cells were then treated with ProLong® Diamond antifade (Life Technologies). The slides were sealed with nail polish and were kept in the dark at 4° C. The localization of tight junction proteins in B11 cells was visualized using an Olympus FSX100 fluorescence microscope and FSX-BSW imaging software (Olympus, Tokyo, Japan). Immunofluorescent staining of tight junction proteins is a qualitative assay.
The gingival epithelium, a stratified squamous tissue that acts as an interface between the external environment and the underlying connective tissue, plays an active role in maintaining oral health. […] The capability of test compositions to protect oral tissue from perio-pathogenic bacteria caused tissue damage was assessed using the methodology set out in Example 2. […]

[3] = tested on: occludin and zonula occludens-1 in TNF-α-treated gingival keratinocytes; assay: Immunofluorescence of tight junction proteins with TNF-α challenge; assay type: cell-based, human; settings: Example 5, FIGS. 26, 33, 34
Procedure: as §1, with “The cells were incubated with 2.5 μg/mL of either occludin antibody-Alexa Fluor® 488 conjugate or ZO-1 antibody-Alexa Fluor® 594 conjugate in blocking buffer overnight at 4° C.” left out
Assays exposed cells to either TNFα only or TNFα+test composition. TNFα is known to cause tissue damage. A stock solution of recombinant TNF-α is prepared in sterile distilled water at 100 μg/ml. Thereafter, dilutions are made in keratinocyte culture medium. First dilution is 1/1000 to obtain 100 ng/ml. TNF-α and the test compounds are added simultaneously.

[4] = tested on: P. gingivalis collagenase; assay: Proteolytic assay: collagen DQ degradation by P. gingivalis culture supernatant; assay type: biochemical, Porphyromonas gingivalis; settings: Example 6, FIGS. 35, 38, 41; over 5 hours
Procedure: To determine the effects of formulations tested on the proteinase activity of P. gingivalis, a 48-h culture was centrifuged at 10 000×g for 10 min. […] The fluorescence corresponding to collagen degradation was monitored using a Synergy 2 microplate reader, with the excitation and emission wavelengths set at 495 nm and 525 nm, respectively. Test compounds or the fluorescent substrate alone were used as controls. For the proteolytic assay, the following ratio was used: 40% P. gingivalis supernatant+40% test compounds+20% DQ collagen. […]
To determine the effects of the Dual Zinc plus Arginine aqueous solution and dentifrice on the proteinase activity of P. gingivalis, a 48-h culture was centrifuged at 10 000×g for 10 min. Assay mixtures containing equal volumes of P. gingivalis culture supernatant, the fluorescent substrate collagen DQ™ (100 μg/mL; Molecular Probes, Eugene, Oreg., USA), and the Dual Zinc […] The fluorescence corresponding to collagen degradation was monitored using a Synergy 2 microplate reader, with the excitation and emission wavelengths set at 495 nm and 525 nm, respectively. Test compounds or the fluorescent substrate alone were used as controls. Leupeptin (1 μM) was used as a positive inhibitory control.

P. gingivalis = P. gingivalis invasion / translocation through keratinocyte layer; assay type: cell-based, Porphyromonas gingivalis; settings: Example 6, FIGS. 36, 39, 42
Procedure: Assays were performed to determine the extent formulations can inhibit and reduce invasion of cell monolayer by P. gingivalis.
The basolateral and apical compartments were filled with 0.235 mL and 0.075 mL of K-SFM, respectively. Following a 48-h incubation, the conditioned medium was replaced with antibiotic-free K-SFM. To determine the ability of P. gingivalis to penetrate the keratinocyte layer, FITC-labeled bacteria suspended in antibiotic-free K-SFM were added to the apical compartment of the double-chamber system at an MOI of 10^4. […] To evaluate the effect of the Dual Zinc plus Arginine aqueous solution and dentifrice on the invasive capacity of P. gingivalis, the keratinocyte layer was co-incubated with them and the bacteria. The translocation of FITC-labeled bacteria through the keratinocyte barrier was monitored using a Synergy 2 microplate reader by measuring the fluorescence (RUF; excitation wavelength 495 nm; emission wavelength 525 nm) in the medium recovered from the lower chamber following a 24-h incubation in an anaerobic chamber at 37° C.

Structure (SMILES)	TER measured as a percent of the initial value [1]	immunofluorescence of tight junction proteins with P. gingivalis [2]	TNFα induced cell junction disorganization (immunofluorescence) [3]	inhibition of P. gingivalis collagenase activity [4]	invasion of an epithelial cell monolayer by P. gingivalis (P. gingivalis)
[O]=[Zn] [zinc oxide]	increase in TER values with the increase in sample concentration	protects barrier integrity from the deleterious effects caused by the presence of P. gingivalis	prevents TNFα induced cell junction disorganization	inhibits collagenase activity of P. gingivalis in a dose response manner	inhibits invasion of an epithelial cell monolayer
O=C([O-])CC(O)(CC(=O)[O-])C(=O)[O-].O=C([O-])CC(O)(CC(=O)[O-])C(=O)[O-].[Zn+2].[Zn+2].[Zn+2] [zinc citrate]	increase in TER values with the increase in sample concentration	protects barrier integrity from the deleterious effects caused by the presence of P. gingivalis		inhibits collagenase activity of P. gingivalis in a dose response manner	
